Consider 5 compounds from ChEMBL document CHEMBL1649218, “New treatment option for second-stage African sleeping sickness: in vitro and in vivo efficacy of aza analogs of DB289” (Antimicrob Agents Chemother, 2009).

In brackets after ≈: the same amount, converted by molar mass. Activity calls are given as the source filed them. The rule behind the calls is not given here.

Assay [1] concerns Trypanosoma brucei rhodesiense. The assay can be described thus: Antitrypanosomal activity against wild-type Trypanosoma brucei rhodesiense STIB900 by Alamar blue assay. The class given is functional, organism-based.
In assay [2] the test system is Trypanosoma brucei rhodesiense. The assay can be described thus: Antitrypanosomal activity against pentamidine-resistant Trypanosoma brucei rhodesiense STIB900 by Alamar blue assay. The class given is functional, organism-based.
The test system of assay [3] is Trypanosoma brucei rhodesiense. The experiment in a line: Antitrypanosomal activity against melasoprol-resistant Trypanosoma brucei rhodesiense STIB900 by Alamar blue assay. The class given is functional, organism-based. For orientation: Resazurin is reduced to fluorescent resorufin, in cell work by metabolically active cells.
In assay [4] the test system is Trypanosoma brucei gambiense. The experiment in a line: Antitrypanosomal activity against Trypanosoma brucei gambiense K03048 by Alamar blue assay. The class given is functional, organism-based.
Assay [5] concerns Trypanosoma brucei gambiense. The assay can be described thus: Antitrypanosomal activity against Trypanosoma brucei gambiense ITMAP141267 by Alamar blue assay. The class given is functional, organism-based.
In assay [6] the test system is Trypanosoma brucei gambiense. The assay can be described thus: Antitrypanosomal activity against Trypanosoma brucei gambiense STIB930 by Alamar blue assay. The class given is functional, organism-based.
Assay [7] concerns Trypanosoma brucei brucei. The experiment in a line: Antitrypanosomal activity against Trypanosoma brucei brucei BS221 by Alamar blue assay. The class given is functional, organism-based.
Assay [8] relates to Trypanosoma brucei brucei. The assay can be described thus: Antitrypanosomal activity against Trypanosoma brucei brucei AT1KO by Alamar blue assay. The class given is functional, organism-based.
Assay [9] relates to Trypanosoma brucei rhodesiense. The experiment in a line: Ratio of IC50 for pentamidine-resistant Trypanosoma brucei rhodesiense STIB900 to IC50 for wild-type Trypanosoma brucei rhodesiense STIB900. The class given is functional.
Assay [10] concerns Trypanosoma brucei rhodesiense. The assay can be described thus: Ratio of IC50 for melasoprol-resistant Trypanosoma brucei rhodesiense STIB900 to IC50 for wild-type Trypanosoma brucei rhodesiense […]. The class given is functional.
A short description of assay [11]: Ratio of IC50 for Trypanosoma brucei gambiense K03048 to IC50 for wild-type Trypanosoma brucei rhodesiense STIB900. The class given is functional.
Assay [12] in a line: Ratio of IC50 for Trypanosoma brucei gambiense ITMAP141267 to IC50 for wild-type Trypanosoma brucei rhodesiense […]. The class given is functional.
The nature of assay [13]: Ratio of IC50 for Trypanosoma brucei gambiense STIB930 to IC50 for wild-type Trypanosoma brucei rhodesiense […]. The class given is functional.
The test system of assay [14] is Trypanosoma brucei brucei. The assay can be described thus: Ratio of IC50 for Trypanosoma brucei brucei AT1KO to IC50 for Trypanosoma brucei brucei BS221. The class given is functional.
For assay [15], the system named is Trypanosoma brucei rhodesiense. The experiment in a line: Antitrypanosomal activity against wild-type Trypanosoma brucei rhodesiense STIB900 infected in NMRI mouse assessed as survival of mouse at 20 mg/kg, ip for 4 days. The class given is functional. To be noted: route intraperitoneal.
For assay [16], the system named is Trypanosoma brucei rhodesiense. The experiment in a line: Antitrypanosomal activity against wild-type Trypanosoma brucei rhodesiense STIB900 infected in NMRI mouse assessed as survival of mouse at 5 mg/kg, ip for 4 days. The class given is functional. As to conditions: route intraperitoneal.
For assay [17], the system named is Trypanosoma brucei rhodesiense. The experiment in a line: Antitrypanosomal activity against wild-type Trypanosoma brucei rhodesiense STIB900 infected in NMRI mouse assessed as cure from infection at 50 mg/kg, po for 4 days. Further details: dose 50 mg/kg. The class given is functional, organism-based.
Assay [18] concerns Trypanosoma brucei rhodesiense. The experiment in a line: Antitrypanosomal activity against wild-type Trypanosoma brucei rhodesiense STIB900 infected in NMRI mouse assessed as cure from infection at 25 mg/kg, po for 4 days. The class given is functional, organism-based. Also on record: dose 25 mg/kg.
Assay [19] relates to Trypanosoma brucei rhodesiense. The experiment in a line: Antitrypanosomal activity against wild-type Trypanosoma brucei rhodesiense STIB900 infected in NMRI mouse assessed as survival of mouse at 50 mg/kg, po for 4 days. The class given is functional.
Assay [20] has as its system Trypanosoma brucei rhodesiense. The assay can be described thus: Antitrypanosomal activity against wild-type Trypanosoma brucei rhodesiense STIB900 infected in NMRI mouse assessed as survival of mouse at 25 mg/kg, po for 4 days. The class given is functional.
Assay [21] concerns Trypanosoma brucei brucei. The experiment in a line: Antitrypanosomal activity against Trypanosoma brucei brucei GVR35 infected in NMRI mouse CNS model assessed as cure from infection at 50 mg/kg, po for 5 days. The class given is functional, organism-based. Also on record: dose 50 mg/kg.
Assay [22] relates to Trypanosoma brucei brucei. The experiment in a line: Antitrypanosomal activity against Trypanosoma brucei brucei GVR35 infected in NMRI mouse CNS model assessed as cure from infection at 25 mg/kg, po for 5 days. The class given is functional, organism-based. Further details: dose 25 mg/kg.
Assay [23] relates to Trypanosoma brucei brucei. The assay can be described thus: Antitrypanosomal activity against Trypanosoma brucei brucei GVR35 infected in NMRI mouse CNS model assessed as cure from infection at 25 mg/kg, po for 10 days. The class given is functional, organism-based. Further details: dose 25 mg/kg.
For assay [24], the system named is Trypanosoma brucei brucei. The experiment in a line: Antitrypanosomal activity against Trypanosoma brucei brucei GVR35 infected in NMRI mouse CNS model assessed as survival of mouse at 100 mg/kg, po for 5 days. The class given is functional.
Assay [25] deals with Trypanosoma brucei brucei. The experiment in a line: Antitrypanosomal activity against Trypanosoma brucei brucei GVR35 infected in NMRI mouse CNS model assessed as survival of mouse at 50 mg/kg, po for 5 days. The class given is functional.
The test system of assay [26] is Trypanosoma brucei brucei. The assay can be described thus: Antitrypanosomal activity against Trypanosoma brucei brucei GVR35 infected in NMRI mouse CNS model assessed as survival of mouse at 25 mg/kg, po for 5 days. The class given is functional.
Assay [27] concerns Trypanosoma brucei brucei. The experiment in a line: Antitrypanosomal activity against Trypanosoma brucei brucei GVR35 infected in NMRI mouse CNS model assessed as survival of mouse at 50mg/kg, po for 10 days. The class given is functional.
In assay [28] the test system is Trypanosoma brucei brucei. The experiment in a line: Antitrypanosomal activity against Trypanosoma brucei brucei GVR35 infected in NMRI mouse CNS model assessed as survival of mouse at 25 mg/kg, po for 10 days. The class given is functional.
The subject of assay [29] is Trypanosoma brucei rhodesiense. The assay can be described thus: Antitrypanosomal activity against wild-type Trypanosoma brucei rhodesiense STIB900 infected in NMRI mouse assessed as survival of mouse at 5 mg/kg, po for 4 days. The class given is functional.
Assay [30] concerns Trypanosoma brucei brucei. The experiment in a line: Antitrypanosomal activity against Trypanosoma brucei brucei GVR35 infected in NMRI mouse CNS model assessed as survival of mouse at 10 mg/kg, po for 10 days. The class given is functional.
Assay [31] deals with Trypanosoma brucei rhodesiense. The assay can be described thus: Antitrypanosomal activity against wild-type Trypanosoma brucei rhodesiense STIB900 infected in NMRI mouse assessed as survival of mouse at 100 mg/kg, po for 4 days. The class given is functional.
Assay [32] concerns Trypanosoma brucei brucei. The experiment in a line: Antitrypanosomal activity against Trypanosoma brucei brucei GVR35 infected in NMRI mouse CNS model assessed as survival of mouse at 75 mg/kg, po for 5 days. The class given is functional.
Assay [33] deals with Trypanosoma brucei rhodesiense. The experiment in a line: Antitrypanosomal activity against wild-type Trypanosoma brucei rhodesiense STIB900 infected in NMRI mouse assessed as cure from infection at 5 mg/kg, po for 4 days. The class given is functional, organism-based. Also on record: dose 5 mg/kg.

Take `N=C(N)c1ccc(OCCCCCOc2ccc(C(=N)N)cc2)cc1` [PENTAMIDINE]: the IC50 (in general, the point on the concentration scale where inhibition reaches its midpoint) in assay [1] stood at 1.2 ng/mL (≈ 0.00352 µM); in assay [2], 134 ng/mL (≈ 0.392 µM); in assay [3], 124 ng/mL (≈ 0.366 µM); in assay [4] it was 15.5 ng/mL (≈ 0.0455 µM); in [5] it was 4.2 ng/mL (≈ 0.0123 µM); in assay [6] it was 1.1 ng/mL (≈ 0.00323 µM). Also, the half-maximal inhibitory concentration (IC50) in assay [7] was found to be 0.9 ng/mL (≈ 0.00264 µM); in assay [8], 4.1 ng/mL (≈ 0.012 µM). Also, the “Ratio IC50” value in assay [9] was 113.1; in assay [10], 105.4; in assay [11], 13.1; in assay [12] it was 3.6; in assay [13], 0.9; in [14] it was 4.3. Further, the MSD was >57.5 days in assay [15] and >45 days in assay [16].
Consider `CONC(=N)c1ccc(-c2ccc(-c3ccc(C(=N)NOC)cc3)o2)cc1` [PAFURAMIDINE], for which the result in assay [17] and in [18] was Active. Besides, the MSD in assay [19] is >60 days; in assay [20] it was >60 days; in assay [24], >167.8 days; in assay [25], >153.6 days; in [26], 75.4 days; in [27], >172.2 days. In assay [28], the MSD is >146.6 days. The outcome in assay [21], in [22] and in assay [23] was inactive.
Take `CO/N=C(/N)c1ccc(-c2ccc(-c3ccc(/C(N)=N/O)cc3)o2)nc1`: the outcome in assay [18] and in [30] was Active. Besides, the MSD is >60 days in assay [20]; >52.75 days in assay [29]; >180 days in assay [24]; >60 days in assay [31]; >166 days in [32].
For the compound `CO/N=C(/N)c1ccc(-c2ccc(-c3ccc(/C(N)=N/O)cn3)o2)nc1`, the result in assay [18] was Active. Further, the MSD in assay [20] is >61 days; in assay [29], 29.7 days; in [24], >140.4 days. For the same compound, the result in [33] was inactive.
On to `N=C(NO)c1ccc(-c2ccc(-c3ccc(/C(N)=N/O)cn3)o2)cc1`, for which the outcome in [30] was Active. In addition, the MSD in assay [31] was >54 days.
